In US11161828B2, “Class of bisquaternary ammonium compound as well as the preparative method and the use thereof” (WEST CHINA HOSPITAL, SICHUAN UNIVERSITY, priority 2018, dated 2021):

Assays:
[1] = tested on: Male New Zealand white rabbits; test: Muscle relaxation test in anesthetized rabbits with neuromuscular transmission monitor (TOF); assay type: in vivo, rabbit; conditions: for ED (2 x ED95): Oryctolagus cuniculus; for ED (2 x ED95) / 2 × ED95: intravenous injection, propofol general anesthesia; for Onset time / Recovery time: i.v. 2×ED95 dose; for Onset time: onset = TOF=0; for Recovery time: recovery of muscle relaxation = TOF=90%
Procedure: Male New Zealand white rabbits weighing 2-3.5 kg were used as experimental animals for muscle relaxation test. The specific procedures were as follows: propofol emulsion was used to induce and maintain general anesthesia (induction dose: 10 mg/kg; maintenance dose: […]). Tracheal intubation was carried out and respiratory support was used.

human body = conditions: cited from earlier work; for duration of muscle relaxation / action time: after single administration, clinical use

Row | Molecule | ED (2 x ED95) [1] [mg/kg] | Onset time [1] [s] | Recovery time [1] [min] | 2 × ED95 [1] [mg/kg] | ED (2 x ED95) ([1]; iv) [mg/kg] | duration of muscle relaxation / action time (human body) [min] | action time (lasts for) (human body; in the human body) [min]
1 | C[N+](CCOC(=O)OCOC(=O)CCC[N+]1(Cc2c(F)c(F)c(F)c(F)c2F)CCCCC1)(Cc1c(F)c(F)c(F)c(F)c1F)Cc1c(F)c(F)c(F)c(F)c1F [Compound 6] | 0.9 | <40 | 5.1 ± 2.1 | – | – | – | –
2 | C[N+](CCOC(=O)OCOC(=O)CCC[N+]1(Cc2c(F)cc(F)cc2F)CCCCC1)(Cc1ccc(F)cc1)Cc1c(F)cc(F)cc1F (stereo not drawn) [Compound 4] | 0.4 | <40 | 4.4 ± 0.5 | – | – | – | –
3 | CC(OC(=O)CCC[N+]1(Cc2ccc(Cl)cc2Cl)CCCCC1)OC(=O)OCC[N+](C)(Cc1ccc(Cl)cc1)Cc1ccc(Cl)c(Cl)c1 (stereo not drawn) [Compound 11] | – | <40 | 6.7 ± 2.6 | 0.5 | – | – | –
4 | COc1ccc(C[C@@H]2c3cc(OC)c(OC)cc3CC[N@+]2(C)CCC(=O)OCCCCCOC(=O)CC[N@@+]2(C)CCc3cc(OC)c(OC)cc3[C@H]2Cc2ccc(OC)c(OC)c2)cc1OC [Cisatracurium, reference compound] | 0.08 | >120 | 17.6 ± 3.2 | – | – | – | –
5 | C[N+](CCOC(=O)OCOC(=O)CCC[N+]1(Cc2ccc(Br)c(Br)c2)CCCCC1)(Cc1ccc(Br)cc1)Cc1cccc(Cl)c1Cl (stereo not drawn) [Compound 3] | 1.3 | <40 | 3.8 ± 0.4 | – | – | – | –
6 | CC(C[N+](C)(Cc1ccccc1)Cc1ccc([N+](=O)[O-])cc1)OC(=O)OCOC(=O)CCC[N+]1(Cc2ccc([N+](=O)[O-])cc2)CCCCC1 (stereo not drawn) [Compound 22] | – | <40 | 6.2 ± 1.4 | – | 1.2 | – | –
7 | C[N+](CCOC(=O)OCOC(=O)CCC[N+]1(Cc2ccc(Cl)cc2Cl)CCCCC1)(Cc1ccc(Cl)cc1)Cc1ccc(Cl)c(Cl)c1 (stereo not drawn) [Compound 1] | 0.5 | <40 | 4.2 ± 1.1 | – | – | – | –
8 | COc1ccc(C[N+](C)(Cc2ccc(OC)c(OC)c2)CC(C)OC(=O)OC(C)OC(=O)CCC[N+]2(Cc3ccc(OC)c(OC)c3)CCCCC2)cc1OC (stereo not drawn) [Compound 23] | – | <40 | 7.8 ± 2.4 | – | 1.2 | – | –
9 | C[N+](CCOC(=O)OCOC(=O)CCC[N+]1(Cc2ccc(Br)cc2)CCCCC1)(Cc1ccc(Br)cc1)Cc1ccc(Br)cc1 [Compound 7] | 1.2 | <40 | 5.2 ± 2.1 | – | – | – | –
10 | CC(OC(=O)CCC[N+]1(Cc2ccc(Cl)cc2Cl)CCCCC1)OC(=O)OCC[N+](C)(Cc1ccc(Cl)cc1)Cc1ccc(Cl)c(Cl)c1 (stereo not drawn) [Compound 10] | – | <40 | 4.2 ± 0.9 | 0.7 | – | – | –
11 | C[N+](CCOC(=O)OCOC(=O)CCC[N+]1(Cc2ccccc2)CCCCC1)(Cc1ccccc1)Cc1ccc([N+](=O)[O-])cc1 (stereo not drawn) [Compound 18] | 1.9 | <40 | 7.2 ± 2.7 | – | – | – | –
12 | C[N+](CCOC(=O)OCOC(=O)CCC[N+]1(Cc2ccc([N+](=O)[O-])cc2)CCCCC1)(Cc1ccc(Br)cc1)Cc1ccc([N+](=O)[O-])cc1 (stereo not drawn) [Compound 15] | 1.9 | <40 | 5.3 ± 2.1 | – | – | – | –
13 | COc1ccc(C[N+](C)(CCCCOC(=O)OC(C)OC(=O)C[N+]2(Cc3ccc(OC)c(OC)c3)CCCCC2)Cc2ccc(OC)c(OC)c2)cc1OC (stereo not drawn) [Compound 24] | – | <40 | 8.4 ± 1.9 | – | 1.4 | – | –
14 | CC(=O)O[C@H]1C[C@@H]2CC[C@@H]3[C@H](CC[C@@]4(C)[C@H]3C[C@H]([N+]3(C)CCCCC3)[C@@H]4OC(C)=O)[C@@]2(C)C[C@@H]1[N+]1(C)CCCCC1 [pancuronium] | – | – | – | – | – | > 60 | –
15 | C[N+](CCOC(=O)OCOC(=O)CCC[N+]1(Cc2ccc([N+](=O)[O-])cc2)CCCCC1)(Cc1ccc([N+](=O)[O-])cc1)Cc1ccc(Cl)c(Cl)c1 (stereo not drawn) [Compound 16] | 2.2 | <40 | 5.2 ± 1.1 | – | – | – | –
16 | C[N+](CCOC(=O)OCOC(=O)CCC[N+]1(Cc2ccc([N+](=O)[O-])cc2)CCCCC1)(Cc1ccccc1)Cc1ccc([N+](=O)[O-])cc1 (stereo not drawn) [Compound 13] | 2.1 | <40 | 7.9 ± 1.9 | – | – | – | –
17 | C[N+](CCOC(=O)OCOC(=O)CCC[N+]1(Cc2ccccc2)CCCCC1)(Cc1ccccc1)Cc1ccccc1 [Compound 20] | 2.4 | <40 | 6.9 ± 2.5 | – | – | – | –
18 | CC(OC(=O)CCC[N+]1(Cc2ccc(Cl)cc2Cl)CCCCC1)OC(=O)OCC[N+](C)(Cc1ccc(Cl)cc1)Cc1ccc(Cl)c(Cl)c1 (stereo not drawn) [Compound 9] | – | <40 | 4.2 ± 1.1 | – | 0.6 | – | –
19 | C[N+](CCOC(=O)OCOC(=O)CCC[N+]1(Cc2ccccc2Br)CCCCC1)(Cc1ccccc1Br)Cc1ccccc1Br [Compound 8] | – | <40 | 7.2 ± 1.8 | – | 1.2 | – | –
20 | C[N+](CCOC(=O)OCOC(=O)CCC[N+]1(Cc2ccc([N+](=O)[O-])cc2[N+](=O)[O-])CCCCC1)(Cc1ccc([N+](=O)[O-])cc1)Cc1ccc([N+](=O)[O-])cc1 [Compound 5] | 0.4 | <40 | 6.2 ± 1.4 | – | – | – | –
21 | micuronium | – | – | – | – | – | 15 to 20 | –
22 | C[N+](CCCCOC(=O)OCOC(=O)C[N+]1(Cc2ccc([N+](=O)[O-])cc2)CCCCC1)(Cc1ccc([N+](=O)[O-])cc1)Cc1ccc(Cl)cc1Cl (stereo not drawn) [Compound 21] | 4 | <40 | 5.1 ± 1.1 | – | – | – | –
23 | C[N+](CCOC(=O)OCOC(=O)CCC[N+]1(Cc2ccc([N+](=O)[O-])cc2)CCCCC1)(Cc1ccc([N+](=O)[O-])cc1)Cc1ccc([N+](=O)[O-])cc1 [Compound 12] | 1.8 | <40 | 8.1 ± 0.2 | – | – | – | –
24 | C[N+](C)(C)CCOC(=O)CCC(=O)OCC[N+](C)(C)C [Succinylcholine, reference compound] | – | <40 | 12.3 ± 4.1 | – | 1.8 | – | 10
25 | COc1ccc(C[N+](C)(CCCC(C)OC(=O)OC(C)OC(=O)C[N+]2(Cc3ccc(OC)c(OC)c3)CCCCC2)Cc2ccc(OC)c(OC)c2)cc1OC (stereo not drawn) [Compound 25] | – | <40 | 8.1 ± 2.9 | – | 1.4 | – | –
26 | C[N+](CCOC(=O)OCOC(=O)CCC[N+]1(Cc2ccc([N+](=O)[O-])cc2)CCCCC1)(Cc1ccccc1)Cc1ccccc1 [Compound 19] | 2.2 | <40 | 7.1 ± 1.2 | – | – | – | –
27 | CC(OC(=O)CCC[N+]1(Cc2ccc([N+](=O)[O-])cc2)CCCCC1)OC(=O)OCC[N+](C)(Cc1ccccc1)Cc1ccc([N+](=O)[O-])cc1 (stereo not drawn) [Compound 14] | 2.4 | <40 | 4.2 ± 1.2 | – | – | – | –
